Laboratory results: patent US9592223B2, “Small molecule inhibitors of MALT1” (Cornell University, priority 2012, dated 2017)
Read-outs that look alike come from different tables or passages of the source.

How the values were obtained:
[1] = biological target: T1, LZ-MALT1 (Homo sapiens, UniProt Q9UDY8); assay: Dose-effect and time-course of MALT1 inhibition (pre-incubation, then Ac-LRSR-AMC); type: biochemical; details: pre-incubation 5 to 80 minutes
T1 construct: His tag (N); made in house; host or cells: E. coli
Method: The reactions were monitored in a SpectraMax M5 plate reader (Molecular Devices, Sunnyvale, Calif. USA) with excitation/emission wavelength at 360/465 nm and 20 seconds intervals. Normalized percentage of inhibition was calculated with the following formula: (M(T2-T1)−N(T2-T1))/(P(T2-T1)−N(T2-T1))*100, where M(T2-T1) is the difference signal of compound at time point 200s and 0s, N(T2-T1) is the difference signal of negative control buffer only, P(T2-T1) is the difference signal of positive control Z-VRPR-FMK.

[2] = system: TMD8 cells; assay: Growth inhibition, ATP-based luminescent assay; type: cell-based; details: Homo sapiens
Method: Cell proliferation was determined by ATP quantification using a luminescent method (CellTiter-Glo, Promega, Madison, Wis.) and Trypan blue dye-exclusion (Sigma, St. Louis, Mo.). Cell viability in drug-treated cells was normalized to their respective controls (fractional viability) and results are given as 1-fractional viability. CompuSyn software (Biosoft, Cambridge, UK) was used to determine drug concentrations inhibiting fractional growth compared to controls.
DLBCL cell lines were grown in exponential growth conditions during the 48 hr of treatment. Cell proliferation was determined by ATP quantification using a luminescent method (CellTiter-Glo, Promega, Madison, Wis.) and Trypan blue dye-exclusion (Sigma, St. Louis, Mo.). Luminescence was measured using the Synergy4 microplate reader (BioTek Instruments, Winooski, Vt.). Standard curves for each cell line were calculated by plotting the cell number (determined by the Trypan blue method) against their luminescence values and number of cells was calculated accordingly. Cell viability in drug-treated cells was normalized to their respective controls (fractional viability) and results are given as 1-fractional viability. […] Experiments were performed in triplicate.

[3] = system: MALT1^C464A (inactive mutant) NF-κB activation; assay: NF-κB reporter assay in 293T cells, PMA/ionomycin, BCL10 and MALT1 C464A; type: cell-based; details: pre-treatment
Excerpt: Antigen receptor-mediated NF-κB signaling partly depends on MALT1 activity (Ruefli-Brasse et al., 2003; Ruland et al., 2003). […] First, 293T cells were transfected with the NF-κB reporter vector (NF-κB)5-luc2CP-pGL4 (harboring 5 copies of the NF-κB consensus response element and a destabilized Firefly luciferase) and TK-pRL control together with plasmids expressing BCL10 and either MALT1^WT or MALT1^C464A. […] HBL-1 was transfected with the reporter construct (NF-κB)5-luc2CP-pGL4 and TK-pRL control.
Reporter assays were performed in 293T cells seeded at a density of 2×10^5 cells per well of a 12-well dish. 100 ng of (NF-κB)5-Luc2CP-pGL4 and 10 ng of TK-Renilla internal control plasmid were cotransfected along with 25 ng of the indicated plasmids (MIGR1-MALT1^WT or MIGR1-MALT1^C464A and pcDNA4-Flag-Bcl10) using Lipofectamine 2000 (Invitrogen). Lysates were submitted to dual luciferase assays following manufacturer's protocol (Promega). In HBL-1, 5 μg of (NF-κB)5-Luc2CP-pGL4 and 50 ng of TK-Renilla internal control plasmid per 5×10^6 cells were cotransfected using nucleofection (Amaxa, Lonza, Basel, Switzerland). Forty-eight hours after transfection, cells were plated at a density of 5×10^4 cells per well of a 24-well plate and treated as indicated. Lysates were submitted to dual luciferase assays following manufacturer's protocol (Promega).

[4] = system: cell cycle; assay: BrdU incorporation - DAPI staining cell cycle flow cytometry; type: cell-based; details: increasing concentrations
Method: Cell proliferation was examined using the CFSE dilution assay by flow cytometry on viable cells at 48, 72 and 96 h. […] Trypan blue exclusion and apoptosis assessed by Annexin V^+ DAPI^− flow cytometry was measured every 48 hr for a period of 14 days.
To determine cell-cycle distribution, cells were analyzed by flow cytometry using pulse-BrdU (bromodeoxyuridine) incorporation with the APC BrdU Flow Kit (BD Pharmingen, San Jose, Calif.).

[5] = system: HBL-1 ABC-DLBCL xenografts; assay: HBL-1 xenograft in NOD-SCID mice; type: in vivo; details: IP 25 mg/kg/day
Method: Animals were sacrificed 24 hr after the fourteenth injection.
Eight-week old male SCID NOD.CB17-Prkdc^scid/J mice were subcutaneously injected with low-passage 10^7 human HBL-1, TMD8 or OCI-Ly1 cells. Treatment was administered by intra-peritoneal injection. Tumor volume was monitored by three-weekly digital calipering. All procedures followed US NIH protocols and were approved by the Animal Institute Committee of the Weill Cornell Medical College.
Eight-week old male SCID NOD.CB17-Prkdc^scid/J mice were purchased from Jackson Laboratories (Bar Harbor, Minn.) and housed in a clean environment. Mice were subcutaneously injected with low-passage 10^7 human TMD8 or OCI-Ly1 cells in 50% matrigel (BD Biosciences, #354234). Treatment was initiated when tumors reached an average size of 120 mm^3 (17 days post-transplantation). Drugs were reconstituted in DMSO and stored at −80° C. until used and were administered by intra-peritoneal injection. Tumor volume was monitored by three-weekly digital calipering (Fisher Scientific, Thermo Scientific, Rockford, Ill.) and calculated using the formula (smallest diameter^2×largest diameter)/2. Data were expressed as mean±SEM, and differences were considered statistically significant at p<0.05 by paired Student's t-test. All procedures involving animals followed US NIH protocols and were approved by the Animal Institute Committee of the Weill Cornell Medical College of Cornell University.
Paraffin-embedded tumor xenografts were sectioned, dewaxed and submitted to antigen retrieval. For IF-P, Alexa Fluor-488 conjugated secondary antibodies from Invitrogen where used and cell nuclei where counterstained with DAPI. Fluorescent images were taken using an Axiovert 200M fluorescent microscope (Carl Zeiss Inc., Thornwood, N.Y.). Oberkochen, Germany). For IHC, biotin-conjugated secondary antibodies where used. Then avidin/biotin peroxidase was applied to the slides (Vector Laboratories). Color was developed with diaminobenzoate chromogen peroxidase substrate (Vector) and counterstained with hematoxilin-eosyn. […]

T1 sequence (Q9UDY8 with tags, fused parts or gaps limits assumed): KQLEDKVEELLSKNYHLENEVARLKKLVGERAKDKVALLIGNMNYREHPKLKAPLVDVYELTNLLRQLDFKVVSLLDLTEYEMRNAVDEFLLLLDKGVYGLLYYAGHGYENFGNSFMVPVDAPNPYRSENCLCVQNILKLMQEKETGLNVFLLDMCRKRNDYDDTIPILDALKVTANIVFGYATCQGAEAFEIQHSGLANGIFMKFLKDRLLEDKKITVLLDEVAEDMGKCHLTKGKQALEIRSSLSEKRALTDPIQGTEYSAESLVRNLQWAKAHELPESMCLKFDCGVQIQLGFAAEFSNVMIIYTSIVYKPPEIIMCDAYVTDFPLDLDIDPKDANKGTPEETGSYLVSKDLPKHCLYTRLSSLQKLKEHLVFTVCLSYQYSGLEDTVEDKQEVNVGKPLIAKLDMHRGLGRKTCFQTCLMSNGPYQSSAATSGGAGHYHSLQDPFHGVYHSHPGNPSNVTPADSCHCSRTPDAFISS

## COCCOc1nc(-c2ccc(Cl)c(Cl)c2)n(-c2ccc(NC(=O)CCl)cc2)n1 [MI-2]
[1]
  kind of inhibition (time dependence): covalent and irreversible inhibition
  percent MALT1 inhibition reached: ~100%
[2]; TMD8, read-out: GI50 concentration
  GI50: 500 nM
[2]; TMD8, single dose, 48 hr, read-out: GI50
  GI50: 500 nM
[3]
  NF-κB induction by PMA/ionomycin stimulation: did not significantly affect
[4]
  cell cycle distribution: dose-dependent decrease in S phase
[5]; fourteen injections, p=0.014
  xenograft growth vs. vehicle: profoundly suppressed the growth
[5]; p<0.0001
  proliferation (Ki-67 staining): significant decrease in proliferation
[5]; p=0.0008
  apoptotic cells (TUNEL assay): significant increase in apoptotic cells
